Source: publication PMC9569995, “Study of Biological Activities and ADMET-Related Properties of Salicylanilide-Based Peptidomimetics” (International Journal of Molecular Sciences, 2022)
Values after ≈ are worked out from the molar mass of the structure shown. Read-outs that look alike come from different tables or passages of the source.

Assays:
[1] = Lipophilicity determination by HPLC; type: physicochemical; conditions: for log D6.5: HPLC C18, MeOH 72%/acetate-buffered saline pH 6.5 28%; for log D7.4: HPLC C18, MeOH 72%/acetate-buffered saline pH 7.4 28%; for log k: logarithm of capacity factor, HPLC C18, MeOH 72%/H2O 28%; for averaged lipophilicity value of log k/log D6.5/log D7.4: average of the three experimental descriptors
Source text: . A chromatographic column Symmetry® C18 5 μm, 4.6 × 250 mm, Part No. W21751W016 (Waters Corp, Milford, MA, USA) was used. The HPLC separation process was monitored by ChemStation for LC 3D systems (Agilent Technologies). Isocratic elution by a mixture of MeOH (HPLC grade, 72%) and H2O-HPLC Mili-Q grade (28%) as a mobile phase was used for the determination of capacity factor k. Isocratic elution by a mixture of MeOH (HPLC grade, 72%) and acetate-buffered saline (pH 7.4 and pH 6.5) (28%) as a mobile phase was used for the determination of distribution coefficient expressed as D7.4 and D6.5. The total flow of the column was 1.0 mL/min, injection was 20 μL, column temperature was 40 °C, and sample temperature was 10 °C. The detection wavelength of 210 nm was chosen. A KI methanolic solution was used for the determination of the dead times (tD). Retention times (tR) were measured in minutes. The capacity factors k were calculated according to the formula k = (tR − tD)/tD, where tR is the retention time of the solute, and tD is the dead time obtained using an unretained analyte. The distribution coefficients DpH were calculated according to the formula DpH = (tR − tD)/tD. Each experiment was repeated three times.

M. smegmatis ATCC 700084 = test: In vitro antimycobacterial evaluation, MIC (broth dilution micro-method); type: cell-based, Mycobacterium smegmatis; conditions: Mycolicibacterium smegmatis
Description: For M. smegmatis, the broth dilution micro-method in Middlebrook 7H9 medium (Difco) supplemented with ADC Enrichment (Difco) was used. […] Bacterial inocula were prepared by transferring colonies from culture to sterile water. The cell density was adjusted to 0.5 McFarland units using a densitometer (Densi-La-Meter, LIAP, Riga, Latvia). The final inoculum was made by 1:1000 dilution of the suspension with sterile water. Drug-free controls, sterility controls, and controls consisting of medium and DMSO alone were included. The determination of results was performed visually after three days of static incubation in the darkness at 37 °C in an aerobic atmosphere.

[2] = system: human monocytic leukemia cell line THP-1; test: In vitro cell viability analysis (CCK-8); type: cell-based; conditions: ± SD, n = 6, medium with 10% FBS, 24 h
Description: Human monocytic leukemia THP-1 cells obtained from the European Collection of Cell Cultures (ECACC, Salisbury, UK) were used for in vitro antiproliferative assays. They were routinely cultured in Roswell Park Memorial Institute RPMI 1640 medium supplemented with 10% fetal bovine serum (FBS), 2% L-glutamine, 1% penicillin, and streptomycin (all from Sigma-Aldrich) at 37 °C with 5% CO2. The cells were incubated in a complete medium (i.e., containing FBS) with test compounds at 37 °C with 5% CO2 for 24 h, similarly as we described previously. The effect of the test compounds dissolved in DMSO on cell viability was determined using a Cell Counting Kit-8 (CCK-8; Sigma) according to the manufacturer’s instructions.

[3] = system: Mycobacterium tuberculosis H37Ra/ATCC 25177; test: In vitro antimycobacterial evaluation, MIC (alamarBlue); conditions: MT
[4] = system: Staphylococcus aureus ATCC 29213; test: In vitro antibacterial evaluation, MIC by microtitration broth method
[5] = system: methicillin-resistant S. aureus SA 3202; test: as above; conditions: Staphylococcus aureus
[6] = system: methicillin-resistant S. aureus SA 630; test: as above; conditions: Staphylococcus aureus
[7] = system: methicillin-resistant S. aureus 63718; test: as above; conditions: Staphylococcus aureus
[8] = system: Enterococcus faecalis ATCC 29212; test: as above
[9] = system: vancomycin-resistant E. faecalis VRE 342B; test: as above; conditions: Enterococcus faecalis
[10] = system: vancomycin-resistant E. faecalis VRE 368; test: as above; conditions: Enterococcus faecalis
[11] = system: vancomycin-resistant E. faecalis VRE 725B; test: as above; conditions: Enterococcus faecalis
[12] = system: Staphylococcus aureus ATCC 29213; test: Determination of minimum bactericidal concentrations (agar aliquot subculture); conditions: ATCC29213
[13] = system: methicillin-resistant S. aureus SA 630; test: as above; conditions: Staphylococcus aureus
S. aureus ATCC 29123 = test: Crystal violet uptake (membrane permeability); conditions: 4× MIC, 1 h; compared to growth control and 1% Tween 20
S. aureus ATCC 29213 = test: MTT assay of bacterial viability (respiration); conditions: for Conc.: lowest multiple of MBC with at least 70% inhibition of S. aureus viability / Conc.: lowest multiple of MIC with at least 70% inhibition of S. aureus viability: MTT, 24 h
[14] = system: methicillin-resistant S. aureus SA 3202; test: Determination of minimum bactericidal concentrations (agar aliquot subculture); conditions: Staphylococcus aureus
[15] = system: methicillin-resistant S. aureus 63718; test: as above; conditions: Staphylococcus aureus
[16] = ATCC700084, 72 h, MS, three days, 37 °C, read-out: MIC

SMILES | log D6.5 [1] | log D7.4 [1] | log k [1] | MIC (M. smegmatis ATCC 700084; [16]) [µg/mL] | IC50 [2] [µM] | MIC ([3]; 14 days, 37 °C) | MIC ([4]; ATCC29213, 24 h) | MIC ([5]; 24 h) | MIC ([6]; 24 h) | MIC ([7]; 24 h) | MIC ([8]; ATCC29212, 24 h) | MIC ([9]; 24 h) | MIC ([10]; 24 h) | MIC ([11]; 24 h) | MBC [12] [µM] | MBC [13] [µM] | MBC [14] [µM] | MBC [15] [µM] | MIC (M. smegmatis ATCC 700084; ATCC700084) [µg/mL] | MIC ([3]; Table S2) [µg/mL] | further results
CC(C)C[C@H](NC(=O)[C@H](Cc1ccccc1)NC(=O)c1cc(Cl)ccc1O)C(=O)Nc1ccc(C(F)(F)F)cc1 [6b] | 1.528 | 1.453 | 1.547 | > 256 | 1.6 ± 1 | n.a. n.d. (n.a. = no activity (MIC > 256 µg/mL)) | 55.6 µM | 55.6 µM | 55.6 µM | 444 µM | > 256 µg/mL | > 256 µg/mL | > 256 µg/mL | > 256 µg/mL | 112 (≈ 64.5 µg/mL) | 444 (≈ 256 µg/mL) |  |  |  |  | 
O=C(N[C@@H](Cc1ccccc1)C(=O)Nc1ccc(C(F)(F)F)cc1)c1cc(Cl)ccc1O [3h] | 1.148 | 1.043 | 1.192 | > 256 | 3.3 ± 1 | n.a. n.d. (n.a. = no activity (MIC > 256 µg/mL)) | 1.08 µM | 2.16 µM | 1.08 µM | 0.27 µM | 277 µM | 277 µM | 277 µM | 277 µM | 2.16 (≈ 1 µg/mL) | 2.16 (≈ 1 µg/mL) | 2.16 (≈ 1 µg/mL) | 0.27 (≈ 0.125 µg/mL) |  |  | effect on plasma membrane permeability (crystal violet uptake) (S. aureus ATCC 29123): did not affect plasma membrane permeability; Conc.: lowest multiple of MBC with at least 70% inhibition of S. aureus viability (S. aureus ATCC 29213): 2× MIC (2× MBC); Conc.: lowest multiple of MIC with at least 70% inhibition of S. aureus viability (S. aureus ATCC 29213): 2× MIC (2× MBC); S. aureus Viability Inhibition (S. aureus ATCC 29213; at 2× MIC (2× MBC)): 94%
CCCC[C@H](NC(=O)c1cc(Cl)ccc1O)C(=O)Nc1ccc(C(F)(F)F)cc1 [3d, 5-Chloro-2-hydroxy-N-[(2S)-1-oxo-1-{[4-(trifluoromethyl)phenyl]amino}hexan-2-yl]benzamide] | 1.247 | 1.213 | 1.322 | > 256 | 4.5 ± 1.2 | n.a. n.d. (n.a. = no activity (MIC > 256 µg/mL)) | 0.583 µM | 2.33 µM | 2.33 µM | 4.66 µM | > 256 µg/mL | > 256 µg/mL | > 256 µg/mL | > 256 µg/mL | 1.17 (≈ 0.502 µg/mL) | 4.66 (≈ 2 µg/mL) | 2.33 (≈ 0.999 µg/mL) | 4.66 (≈ 2 µg/mL) |  |  | 
O=C(N[C@@H](CC1CCCCC1)C(=O)Nc1ccc(C(F)(F)F)cc1)c1cc(Cl)ccc1O [3g, 5-Chloro-N-[(2S)-3-cyclohexyl-1-oxo-1-{[4-(trifluoromethyl)phenyl]amino}propan-2-yl]-2-hydroxybenzamide] | 1.615 | 1.576 | 1.679 | > 256 | 1.4 ± 1.1 | n.a. n.d. (n.a. = no activity (MIC > 256 µg/mL)) | 1.07 µM | 1.07 µM | 1.07 µM | 2.13 µM | 546 µM | 546 µM | 546 µM | 546 µM | 1.07 (≈ 0.502 µg/mL) | 2.13 (≈ 0.999 µg/mL) | 1.07 (≈ 0.502 µg/mL) | 2.13 (≈ 0.999 µg/mL) |  |  | averaged lipophilicity value of log k/log D6.5/log D7.4 [1]: 1.62 ± 0.05; effect on plasma membrane permeability (crystal violet uptake) (S. aureus ATCC 29123): did not affect plasma membrane permeability; Conc.: lowest multiple of MBC with at least 70% inhibition of S. aureus viability (S. aureus ATCC 29213): 0.5× MIC (0.5× MBC); Conc.: lowest multiple of MIC with at least 70% inhibition of S. aureus viability (S. aureus ATCC 29213): 0.5× MIC (0.5× MBC); S. aureus Viability Inhibition (S. aureus ATCC 29213; at 0.5× MIC (0.5× MBC)): 95.2%; viability of bacterial cells (S. aureus ATCC 29213; at their MIC value or below): less than 70%
C[C@H](NC(=O)c1cc(Cl)ccc1O)C(=O)Nc1ccc(C(F)(F)F)cc1 [3a, 5-Chloro-2-hydroxy-N-[(2S)-1-oxo-1-{[4-(trifluoromethyl)phenyl]amino}propan-2-yl]benzamide] | 0.804 | 0.759 | 0.866 | > 256 | > 10 | n.a. n.d. (n.a. = no activity (MIC > 256 µg/mL)) | > 256 µg/mL | > 256 µg/mL | > 256 µg/mL | > 256 µg/mL | > 256 µg/mL | > 256 µg/mL | > 256 µg/mL | > 256 µg/mL |  |  |  |  |  |  | averaged lipophilicity value of log k/log D6.5/log D7.4 [1]: 0.81 ± 0.05
CSCC[C@H](NC(=O)c1cc(Cl)ccc1OCc1ccccc1)C(=O)Nc1ccc(C(F)(F)F)cc1 [2e, 2-(Benzyloxy)-5-chloro-N-[(2S)-4-(methylsulfanyl)-1-oxo-1-{[4-(trifluoromethyl)phenyl]amino}butan-2-yl]benzamide] | 1.714 | 1.689 | 1.668 |  | > 10 |  |  |  |  |  |  |  |  |  |  |  |  |  | > 256 | > 256 | MIC ([4]; ATCC29213): > 256 µg/mL; MIC [5]: > 256 µg/mL; MIC [6]: > 256 µg/mL; MIC [7]: > 256 µg/mL; MIC ([8]; ATCC29212): > 256 µg/mL; MIC [9]: > 256 µg/mL; MIC [10]: > 256 µg/mL; MIC [11]: > 256 µg/mL
O=C(N[C@@H](Cc1ccccc1)C(=O)Nc1ccc(C(F)(F)F)cc1)c1cc(Cl)ccc1OCc1ccccc1 [2h] | 1.889 | 1.871 | 1.852 |  | > 10 |  |  |  |  |  |  |  |  |  |  |  |  |  | > 256 | > 256 | MIC ([4]; ATCC29213): > 256 µg/mL; MIC [5]: > 256 µg/mL; MIC [6]: > 256 µg/mL; MIC [7]: > 256 µg/mL; MIC ([8]; ATCC29212): > 256 µg/mL; MIC [9]: > 256 µg/mL; MIC [10]: > 256 µg/mL; MIC [11]: > 256 µg/mL
CC(C)[C@H](NC(=O)c1cc(Cl)ccc1OCc1ccccc1)C(=O)Nc1ccc(C(F)(F)F)cc1 [2c, 2-(Benzyloxy)-5-chloro-N-[(2S)-3-methyl-1-oxo-1-{[4-(trifluoromethyl)phenyl]amino}butan-2-yl]benzamide] | 1.711 | 1.697 | 1.683 |  | > 10 |  |  |  |  |  |  |  |  |  |  |  |  |  | > 256 | > 256 | MIC ([4]; ATCC29213): > 256 µg/mL; MIC [5]: > 256 µg/mL; MIC [6]: > 256 µg/mL; MIC [7]: > 256 µg/mL; MIC ([8]; ATCC29212): > 256 µg/mL; MIC [9]: > 256 µg/mL; MIC [10]: > 256 µg/mL; MIC [11]: > 256 µg/mL
